Activity calls are given as the source filed them. The calls are words filed in the database; no cut-off is given here.
What was measured:
[1] = system: HepG2; assay: Antiproliferative activity against human HepG2 cells assessed as reduction in cell viability incubated for 48 hrs by MTT assay; format: functional, cell-based; conditions: HepG2, 48 h
[2] = system: T-24; assay: Antiproliferative activity against human T24 cells assessed as reduction in cell viability incubated for 48 hrs by MTT assay; format: functional, cell-based; conditions: T-24, 48 h
[3] = system: MGC-803; assay: Antiproliferative activity against human MGC803 cells assessed as reduction in cell viability incubated for 48 hrs by MTT assay; format: functional, cell-based; conditions: MGC-803, 48 h
[4] = system: NCI-H460; assay: Antiproliferative activity against human NCI-H460 cells assessed as reduction in cell viability incubated for 48 hrs by MTT assay; format: functional, cell-based; conditions: NCI-H460, 48 h
[5] = system: L02; assay: Cytotoxicity against human HL7702 cells assessed as reduction in cell viability incubated for 48 hrs by MTT assay; format: cell-based; conditions: L02, 48 h
[6] = system: MGC-803; assay: Antitumor activity against human MGC803 cells xenografted in BALB/C mouse assessed as tumor growth inhibition at 6 mg/kg, ip administered every other day for 2 weeks measured during compound dosing relative to control; format: functional; conditions: MGC-803, ip, 336 h, read-out: TGI
[7] = system: DNA; assay: Binding affinity to Escherichia coli supercoiled pBR322 DNA assessed as DNA intercalation at 5 uM after 3 hrs by ethidium bromide staining-based agarose gel electrophoresis analysis; format: nucleic-acid assay

Row | Structure (SMILES) | IC50 [1] [nM] | IC50 [2] [nM] | IC50 [3] [nM] | IC50 [4] [nM] | IC50 [5] [nM] | inhibition in vivo at 6 mg/kg [6] [%] | Activity [7]
1 | COc1cc2c(cc1OC)-c1nc3ccc(Br)cc3c(NCCN(C)C)c1C2 | 1610 | 1530 | 2730 | 2830 | 6950 |  | 
2 | CC[C@@]1(O)C(=O)OCc2c1cc1n(c2=O)Cc2cc3ccccc3nc2-1 [CAMPTOTHECIN] | 5690 | 3090 | 4270 | 5370 | 2150 | 62.3 | 
3 | CN(C)CCCNc1c2c(nc3ccc(Br)cc13)-c1ccccc1C2 | 3120 | 1360 | 1800 | 2020 | 1640 |  | 
4 | c1ccc2c(c1)Cc1c-2nc2ccccc2c1NCCCN1CCOCC1 | 4480 | 1430 | 1950 | 4600 | 4730 |  | 
5 | CN(C)CCNc1c2c(nc3ccc(Cl)cc13)-c1ccccc1C2 | 6710 | 1740 | 3490 | 4960 | 3600 |  | 
6 | COc1cc2c(cc1OC)-c1nc3ccc(F)cc3c(NCCCN(C)C)c1C2 | 5230 | 2860 | 2110 | 3520 | 3070 |  | 
7 | COc1cc2c(cc1OC)-c1nc3ccccc3c(NCCCN3CCOCC3)c1C2 | 3940 | 2770 | 2520 | 5000 | 4970 |  | 
8 | CN(C)CCNc1c2c(nc3ccc(F)cc13)-c1ccccc1C2 | 2590 | 1150 | 1780 | 2890 | 3220 |  | 
9 | COc1cc2c(cc1OC)-c1nc3ccc(F)cc3c(NCCCN3CCOCC3)c1C2 | 8740 | 3740 | 3700 | 6420 | 3710 |  | 
10 | COc1cc2c(cc1OC)-c1nc3ccc(Br)cc3c(NCCCN3CCOCC3)c1C2 | 3970 | 2640 | 3380 | 4250 | 5020 |  | 
11 | Cc1ccc2nc3c(c(NCCCN(C)C)c2c1)Cc1ccccc1-3 | 1190 | 840 | 860 | 1160 | 580 |  | 
12 | COc1cc2c(cc1OC)-c1nc3ccc(C)cc3c(NCCCN3CCOCC3)c1C2 | 7460 | 4620 | 3500 | 5640 | 7720 |  | 
13 | CC[n+]1c(-c2ccccc2)c2cc(N)ccc2c2ccc(N)cc21 |  |  |  |  |  |  | Active
14 | CN(C)CCNc1c2c(nc3ccc(Br)cc13)-c1ccccc1C2 | 4180 | 2210 | 2980 | 2800 | 6430 |  | 
15 | COc1cc2c(cc1OC)-c1nc3ccccc3c(NCCCN(C)C)c1C2 | 4600 | 2470 | 5170 | 3920 | 4350 |  | 
16 | CN(C)CCCNc1c2c(nc3ccc(Cl)cc13)-c1ccccc1C2 | 2140 | 910 | 1110 | 2310 | 2300 |  | 

Row | Structure (SMILES) | IC50 [1] [nM] | IC50 [2] [nM] | IC50 [3] [nM] | IC50 [4] [nM] | IC50 [5] [nM] | inhibition in vivo at 6 mg/kg [6] [%] | Activity [7]
17 | Fc1ccc2nc3c(c(NCCCN4CCOCC4)c2c1)Cc1ccccc1-3 | 4460 | 1900 | 2790 | 6660 | 3050 |  | 
18 | COc1cc2c(cc1OC)-c1nc3ccc(Cl)cc3c(NCCN(C)C)c1C2 | 3120 | 2210 | 2220 | 2550 | 2560 |  | 
19 | COc1cc2c(cc1OC)-c1nc3ccc(Cl)cc3c(NCCCN3CCOCC3)c1C2 | 7600 | 2230 | 4130 | 2400 | 3800 |  | 
20 | Clc1ccc2nc3c(c(NCCCN4CCOCC4)c2c1)Cc1ccccc1-3 | 5900 | 4320 | 6890 | 5210 | 7120 |  | 
21 | COc1cc2c(cc1OC)-c1nc3ccc(C)cc3c(NCCCN(C)C)c1C2 | 12000 | 4640 | 5080 | 5520 | 4940 |  | 
22 | COc1cc2c(cc1OC)-c1nc3ccc(Cl)cc3c(NCCCN(C)C)c1C2 | 4180 | 2090 | 1580 | 1950 | 2600 |  | 
23 | COc1cc2c(cc1OC)-c1nc3ccc(F)cc3c(NCCN(C)C)c1C2 | 1770 | 2200 | 2350 | 5730 | 4380 |  | 
24 | COc1cc2c(cc1OC)-c1nc3ccc(Br)cc3c(NCCCN(C)C)c1C2 | 6380 | 4970 | 3660 | 5730 | 7060 |  | 
25 | Cc1ccc2nc3c(c(NCCN(C)C)c2c1)Cc1ccccc1-3 | 1710 | 310 | 920 | 1030 | 1150 |  | 
26 | COc1cc2c(cc1OC)-c1nc3ccccc3c(NCCN(C)C)c1C2 | 3140 | 1820 | 1360 | 3100 | 2060 |  | 
27 | CN(C)CCCNc1c2c(nc3ccccc13)-c1ccccc1C2 | 2600 | 310 | 950 | 1660 | 910 |  | 
28 | COc1cc2c(cc1OC)-c1nc3ccc(C)cc3c(NCCN(C)C)c1C2 | 2570 | 2390 | 2460 | 4990 | 3010 |  | 
29 | Cc1ccc2nc3c(c(NCCCN4CCOCC4)c2c1)Cc1ccccc1-3 | 1880 | 580 | 1420 | 890 | 1670 |  | 
30 | CN(C)CCNc1c2c(nc3ccccc13)-c1ccccc1C2 | 2310 | 610 | 930 | 1230 | 1310 |  | 
31 | Brc1ccc2nc3c(c(NCCCN4CCOCC4)c2c1)Cc1ccccc1-3 | 6320 | 9410 | 7500 | 8570 | 5710 |  | 

From ChEMBL document CHEMBL4346660, “Cryptolepine and aromathecin based mimics as potent G-quadruplex-binding, DNA-cleavage and anticancer agents: Design, synthesis and DNA targeting-induced apoptosis” (Eur J Med Chem, 2019)
